# Entries after “also recorded” stand apart in the source; their conditions may differ.
# Assay: fluorescence emission spectrum of encapsulated versus free substance (integrity after encapsulation)
# Type: physicochemical
# Conditions: encapsulated vs free state
# Excerpt: Both images have been obtained using an AxioObserver Z1M (Zeiss Microscope) optical microscope.
# The scanning and fluorescence images have been taken using a Hitachi S-570 scanning microscope and an AxioObserver Z1M (Zeiss 25 Microscope) optical microscope, respectively. The fluorescence intensities have been obtained using an Applied Photophysics fluorometer with a Quantel pulsed laser.
smiles,measurement,value
COc1cccc2c1C(=O)c1c(O)c3c(c(O)c1C2=O)C[C@@](O)(C(=O)CO)C[C@@H]3O[C@H]1C[C@H](N)[C@H](O)[C@H](C)O1 [doxorubicin],modification or degradation during the encapsulation process,has not been modified; also recorded: has not been modified or degraded

# From patent US20110064775A1, “METALLO-ORGANIC SYSTEM FOR THE ENCAPSULATION AND RELEASE OF COMPOUNDS OF INTEREST, METHOD FOR OBTAINING SAME AND USES THEREOF” (CONSEJO SUPERIOR DE INVESTIGACIONES CIENTIFÍCAS, priority 2008, published 2011)
